Data published in patent US20200368312A1 (priority 2017, published 2020).
Where two headings read alike, the source gives them in different places.

Experiments:
[1] = system: quality control strain ATCC 29213 (MSSA); assay: MIC, CLSI-guided broth susceptibility testing (Example 10); type: cell-based, Staphylococcus aureus
Experimental: (§1) MIC Testing: Glycopeptide compounds were dissolved in 100% DMSO. In vitro activities were determined using CLSI-guided broth susceptibility testing to measure drug minimum inhibitory concentrations (MICs) of the compounds against the quality control strain ATCC 29213 (MSSA) and the MRSA isolate ATCC BAA-1556. Glycopeptides are defined as compounds of Formula (I), and their respective R^1, R^2, R^3 and R^4 groups. X is —O— for each compound in Table 2.

[2] = system: MRSA isolate ATCC BAA-1556; assay: as above; type: cell-based, Staphylococcus aureus
Experimental: as §1

Streptococci = assay: Broth microdilution MIC, Streptococci (Example 11, Table 7); type: cell-based
S. epidermidis (CoNS) = assay: Broth microdilution MIC, S. epidermidis (CoNS) (Table 7); type: cell-based
Staphylococcus aureus = assay: microbe, parasite or virus in culture; type: cell-based; conditions: for MIC: Staphylococcus aureus, read-out: MIC
P. anaerobius = assay: Broth microdilution MIC, P. anaerobius (Table 7); type: cell-based; conditions: P. anaerobius MMX 1208 ATCC 27337
S. lugdenensis (CoNS) = assay: Broth microdilution MIC, S. lugdenensis (CoNS) (Table 7); type: cell-based; conditions: S. lugdenensis (CoNS) MMX 8724
S. haemolyticus (CoNS) = assay: Broth microdilution MIC, S. haemolyticus (CoNS) (Table 7); type: cell-based; conditions: S. haemolyticus (CoNS) MMX 529 ATCC 29970
C. perfringens = type: cell-based
P. acnes = assay: Broth microdilution MIC, P. acnes (Table 7); type: cell-based
S. hominis (CoNS) = assay: Broth microdilution MIC, S. hominis (CoNS) (Table 7); type: cell-based; conditions: S. hominis (CoNS) MMX 667 ATCC 27844
Enterococci = type: cell-based
P. micros = assay: Broth microdilution MIC, P. micros (Table 7); type: cell-based; conditions: P. micros MMX 3546

CNC(CC(C)C)C(=O)NC1C(=O)NC(CC(N)=O)C(=O)NC2C(=O)NC3C(=O)NC(C(=O)NC(C(=O)O)c4cc(O)cc(O)c4-c4cc3ccc4O)C(O)c3ccc(c(Cl)c3)Oc3cc2cc(c3OC2OC(CO)C(O)C(O)C2OC2CC(C)(NCc3ccc(-c4ccc(Cl)cc4)cc3)C(O)C(C)O2)Oc2ccc(cc2Cl)C1O (stereo not shown) [RV79]
0.016 µg/mL: MIC Values MSSA 29213 [1] | MIC Values MRSA 1556 [2]

CN[C@H](CC(C)C)C(=O)N[C@H]1C(=O)N[C@@H](CC(N)=O)C(=O)N[C@H]2C(=O)N[C@H]3C(=O)N[C@H](C(=O)N[C@H](C(=O)O)c4cc(O)cc(O)c4-c4cc3ccc4O)[C@H](O[C@H]3C[C@](C)(N)[C@@H](O)[C@H](C)O3)c3ccc(c(Cl)c3)Oc3cc2cc(c3O[C@@H]2O[C@H](CO)[C@@H](O)[C@H](O)[C@H]2O[C@H]2C[C@](C)(NCc3ccc(-c4ccc(Cl)cc4)cc3)[C@@H](O)[C@H](C)O2)Oc2ccc(cc2Cl)[C@H]1O [Oritavancin]
17 ×: RV40 activity as compared to Comparator (Staphylococcus aureus)
0.25 µg/mL: MIC (Streptococci; S. agalactiae MMX 4115, erm^R) | MIC (Streptococci; S. mitis (MGS) MMX 5798) | MIC (Streptococci; S. pyogenes MMX 946, ermR) | MIC (S. epidermidis (CoNS); S. epidermidis (CoNS) MMX 762, MRSE) | MIC (Staphylococcus aureus; VISA, S. aureus MMX 4658, VISA)
2 µg/mL: MIC (Streptococci; S. dysgalactiae MMX 5123) | MIC (Streptococci; S. pyogenes MMX 404 ATCC 19615)
0.03 µg/mL: MIC (Streptococci; S. mitis (MGS) MMX 1205 ATCC 49456) | MIC (Staphylococcus aureus; ATCC 29213 / MSSA, S. aureus MMX 100 ATCC 29213, MSSA (quality control)) | MIC (Staphylococcus aureus; ATCC BAA-1756 / MRSA, S. aureus MMX 2011 ATCC BAA-1756, MRSA) | MIC (Staphylococcus aureus; MRSA, S. aureus MMX 5985, MRSA) | MIC (P. anaerobius) | MIC (Enterococci; E. faecalis MMX 4176) | MIC (P. micros)
≤ 0.008 µg/mL: MIC (Streptococci; S. constellatus (AGS) MMX 5677) | MIC (Streptococci; S. oralis (MGS) MMX 5821) | MIC (Streptococci; S. pneumoniae MMX 432, PRSP) | MIC (Streptococci; S. pneumoniae MMX 747) | MIC (Streptococci; S. pneumoniae MMX 1195 ATCC 49619, PISP) | MIC (S. lugdenensis (CoNS)) | MIC (P. acnes; P. acnes MMX 7942 ATCC 6919) | MIC (P. acnes; P. acnes MMX 7946 ATCC 11827) | MIC (Enterococci; E. faecalis MMX 101 ATCC 29212, VSE) | MIC (Enterococci; E. faecium MMX 173, VanB VRE)
0.06 µg/mL: MIC (Staphylococcus aureus; ATCC BAA-1556 / MRSA, S. aureus MMX 4675 ATCC BAA-1556, MRSA) | MIC (Staphylococcus aureus; MRSA, S. aureus MMX 2010, MRSA) | MIC (Staphylococcus aureus; MRSA, S. aureus MMX 7903, MRSA) | MIC (Staphylococcus aureus; MSSA, S. aureus MMX 7907, MSSA) | MIC (Staphylococcus aureus; MSSA, S. aureus MMX 7908, MSSA) | MIC (S. hominis (CoNS))
0.015 µg/mL: MIC (C. perfringens) | MIC (Enterococci; E. faecium MMX 4204)
0.5 µg/mL: MIC (Streptococci; S. anginosus (AGS) MMX 1201 ATCC 33397) | MIC (Staphylococcus aureus; MRSA, S. aureus MMX 7901, MRSA) | MIC (Staphylococcus aureus; MRSA, S. aureus MMX 7902, MRSA) | MIC (Staphylococcus aureus; S. aureus MMX 4665, hVISA)
0.05 µg/mL: MIC (Streptococci; S. dysgalactiae MMX 5121)
1 µg/mL: MIC (Streptococci; S. agalactiae MMX 427 ATCC 13813) | MIC (Streptococci; S. dysgalactiae MMX 5124) | MIC (Streptococci; S. pyogenes MMX 8778) | MIC (Staphylococcus aureus; VISA, S. aureus MMX 1723, Mu50, VISA) | MIC (Staphylococcus aureus; VISA, S. aureus MMX 2124, VISA, DaptoNS) | MIC (Staphylococcus aureus; VISA, S. aureus MMX 4660, VISA) | MIC (Enterococci; E. faecalis MMX 1086, VanA VRE)
0.025 µg/mL: MIC (Staphylococcus aureus; MSSA, S. aureus MMX 2490, MSSA)
0.12 µg/mL: MIC (Streptococci; S. agalactiae MMX 4088) | MIC (S. epidermidis (CoNS); S. epidermidis (CoNS) MMX 5145, MRSE) | MIC (Staphylococcus aureus; ATCC 33591 / MRSA, S. aureus MMX 5717 ATCC 33591, MRSA) | MIC (Staphylococcus aureus; MRSA, S. aureus MMX 3982, MRSA) | MIC (Staphylococcus aureus; MRSA, S. aureus MMX 5999, MRSA) | MIC (Staphylococcus aureus; MRSA, S. aureus MMX 7899, MRSA) | MIC (Staphylococcus aureus; MRSA, S. aureus MMX 7900, MRSA) | MIC (Staphylococcus aureus; S. aureus MMX 5989, Mu3, hVISA) | MIC (S. haemolyticus (CoNS)) | MIC (Enterococci; E. faecium MMX 851, VanA VRE)
